This note sets out measurements from patent US20140128352A1, “COMPOUNDS AND METHODS FOR MODULATING MITOCHONDRIAL METABOLISM AND REACTIVE OXYGEN SPECIES PRODUCTION” (Buck Institute for Research on Aging, priority 2012, published 2014).

One experiment deals with T1, site IF (Rattus norvegicus, UniProt Q5XIH3).
T1 construct: freshly isolated muscle mitochondria were assayed; from tissue; host or cells: rat skeletal muscle mitochondria (Wistar, Harlan Laboratories)
Description: Retest of IF ROS production (expanded microplate panel). Format: biochemical. The settings on record: 2.5 μM. The protocol:
Compounds identified as site-selective hits as well as structural analogs were re-sourced from ChemBridge and dissolved in DMSO as 80 mM stocks. Master Titration Plates were prepared manually by serially diluting 80 mM compound stocks between 0.08 and 80 mM on 96-well microplates. Four compounds were titrated in duplicate on each plate. Additional DMSO controls were interspersed across these plates to serve as local normalization controls during analysis since two-way median polishing was not appropriate. Just prior to use, compounds were diluted 100-fold with standard buffer (10X). The same known inhibitor positive controls were included on each plate as during high-throughput screening. The five core ROS assays and single ΔΨm assay were carried out as in the initial high-throughput screen. In addition, several assays were included to help validate the specificity of the compounds for a given site of production. […] The use of different substrates was designed to reveal compounds that disrupt mitochondrial function in a substrate specific manner. […] Most frequently, these changes involved the use of different substrates to supply electrons from an alternative entry point in the chain. If a site of ROS production is being targeted selectively by a compound, then in many cases the supply of electrons should not influence the effectiveness of this compound at suppressing ROS production. […] The fluorescence values in each well were scaled in relation to the intra-plate DMSO and known inhibitor controls as in the high-throughput screen except that median values for local interspersed DMSO wells (3-6 wells) were used rather than just the 8 DMSO wells in columns 1 and 12. This normalization was applied in place of the two-way median polish used during high-throughput screening to minimize row and column effects. […] At this stage, strong candidates were not necessarily excluded from further testing if subtle off-target effects were observed (e.g. loss of specificity or signs of general inhibition at the highest concentrations). Rather, these candidates were often pursued for more detailed mechanistic studies with the expectation that subsequent structure activity analysis would provide insight into which structurally related compounds would provide the optimal specificity for a given site of production.

The target in experiment [1] is T2, outer ubiquinone binding site of complex III (IIIQO) (Rattus norvegicus, UniProt P00159+P20788).
T2 construct: freshly isolated muscle mitochondria were assayed; from tissue; host or cells: rat skeletal muscle mitochondria (Wistar, Harlan Laboratories)
Description: High-throughput screen: ROS production from outer ubiquinone binding site of complex III (IIIQO). Format: biochemical. The settings on record: for IIIQO: Table 8.

Experiment [2] addresses T3, glycerol-3-phosphate dehydrogenase (GPDH) (Rattus norvegicus, UniProt P35571).
T3 construct: The activity of GPDH in intact mitochondria (0.3 mg/mL) was measured; from tissue; host or cells: rat skeletal muscle mitochondria (Wistar, Harlan Laboratories)
T3 sequence (P35571 43-727): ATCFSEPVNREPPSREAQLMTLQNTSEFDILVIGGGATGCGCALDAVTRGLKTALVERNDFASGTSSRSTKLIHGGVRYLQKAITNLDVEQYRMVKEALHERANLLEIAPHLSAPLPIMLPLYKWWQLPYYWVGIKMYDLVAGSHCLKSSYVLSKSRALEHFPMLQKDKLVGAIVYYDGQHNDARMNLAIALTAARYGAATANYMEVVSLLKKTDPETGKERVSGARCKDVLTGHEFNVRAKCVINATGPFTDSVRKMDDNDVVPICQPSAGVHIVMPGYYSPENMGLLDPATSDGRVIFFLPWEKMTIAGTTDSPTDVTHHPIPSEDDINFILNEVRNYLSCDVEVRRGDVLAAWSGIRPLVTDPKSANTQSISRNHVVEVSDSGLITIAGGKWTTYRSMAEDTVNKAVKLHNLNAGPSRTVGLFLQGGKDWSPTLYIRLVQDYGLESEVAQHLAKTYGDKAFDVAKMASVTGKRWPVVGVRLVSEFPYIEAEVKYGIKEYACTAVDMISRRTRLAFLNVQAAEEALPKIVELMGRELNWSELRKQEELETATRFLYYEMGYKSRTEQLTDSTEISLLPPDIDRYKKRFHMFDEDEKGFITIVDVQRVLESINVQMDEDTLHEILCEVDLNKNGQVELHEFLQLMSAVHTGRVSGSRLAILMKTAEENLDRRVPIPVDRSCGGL
Description: High-throughput screen: ROS production from glycerol-3-phosphate dehydrogenase (GPDH). Format: biochemical. Also noted: inhibition: dose or concentration left out as unconfirmed.
Description: Skeletal muscle mitochondria were isolated from 5-8 week old female Wistar rats (Harlan Laboratories). Minced muscle was homogenized in buffer containing bacterial protease Type VIII prior to differential centrifugation to separate mitochondria from other tissue components. Unless otherwise stated, freshly isolated muscle mitochondria were assayed in buffer containing 120 mM KCl, 5 mM HEPES, 1 mM EGTA, 0.3% (w/v) bovine serum albumin. Where indicated, CaCl2 was added to yield a final free concentration of 250 nM calcium at pH 7.0 at 37° C.
Compounds (10 mM in DMSO) were randomly selected from a library of 24,000 compounds obtained from ChemBridge and curated by the lab of Robert Hughes at the Buck Institute. Master screening plates were prepared using a Biomek FX liquid handling workstation (Beckman) to transfer 1 μL of each compound into individual wells on 96-well storage plates (80 compounds per plate). Master plates were sealed with foil and stored at −80° C. Just prior to use, plates were brought to room temperature and diluted 300-fold with standard buffer (13.3X=33.3 μM). To monitor the performance of each assay throughout screening and to provide intra-plate normalization reference points, DMSO negative controls and known mitochondrial inhibitor positive controls were included on each Master compound plate.
Total amounts of superoxide and H2O2 production were determined fluorometrically as H2O2, without distinguishing between them, in the presence of exogenous superoxide dismutase (25 units/mL final), horseradish peroxidase (1 unit/mL final), and Amplex UltraRed (25 μM final) as described (Affourtit, C. et al. (2012) Measurement of proton leak and electron leak in isolated mitochondria. Methods Mol. Biol. 810: 165-82). Just prior to use, a bulk 3.3X solution was made in standard buffer and distributed into a 2 mL deep well 96-well transfer plate.
To assess the effects of a compound on ROS production from glycerol-3-phosphate dehydrogenase (GPDH), Start Solution containing 25 mM glycerol phosphate, 4 μM rotenone, 2.5 μM antimycin A, 1 mM malonate, 2 μM myxothiazol was distributed into standard 96-well transfer plates. A Biomek FX workstation was programmed to dispense solutions into black 96-well assay plates. Solutions were dispensed to all assay plates in the following order: ROS Detection solution described in Example 3, Mitochondria solution described in Example 1 to a final concentration of 0.2 mg/ml, and Compound dilutions described in Example 2. Duplicate assay plates were made and each was initiated by the addition of 3.3X Start solution containing 25 mM glycerol phosphate, 4 μM rotenone, 2.5 μM antimycin A, 1 mM malonate, 2 μM myxothiazol. Plates were incubated in the dark at room temperature for 30-40 minutes before acquiring endpoint fluorescence using a Victor 3V plate reader (Perkin Elmer) equipped with 550/590 nm excitation/emission filters.
The fluorescence values in each well were scaled as the percent change from the intra-plate DMSO controls. […] Following initial scaling, intra-plate normalized values were subjected to Tukey's two-way median polish to remove row and column dependent positional effects (Malo et al., 2006).

Experiment [3] has as its system mitochondrial membrane potential (ΔΨm). Put plainly: Membrane potential (ΔΨm) counterscreen with TMRM. The settings on record: malate, nigericin. (In general: Counterscreens check selectivity or assay interference.)
The target of experiment [4] is T4, succinate dehydrogenase/complex II (SDH) (Rattus norvegicus, UniProt P21913+Q641Z9+Q6PCT8+Q920L2).
T4 construct: freshly isolated muscle mitochondria were assayed; from tissue; host or cells: rat skeletal muscle mitochondria (Wistar, Harlan Laboratories)
Put plainly: High-throughput screen: ROS production from succinate dehydrogenase/complex II (SDH). The settings on record: percent change in ROS from DMSO controls; for inhibition at 2.5 µM: Table 7. The class given is biochemical.

For experiment [5], the system named is ubiquinone binding site of complex I (IQ). Description: High-throughput screen: ROS production from ubiquinone binding site of complex I (IQ), isolated skeletal muscle mitochondria. Format: biochemical, rat. The settings on record: percent change in ROS from DMSO controls.
Experiment [6] has as its target T5, flavin binding site of complex I (IF) (Rattus norvegicus, UniProt Q5XIH3).
T5 construct: freshly isolated muscle mitochondria were assayed; from tissue; host or cells: rat skeletal muscle mitochondria (Wistar, Harlan Laboratories)
Description: High-throughput screen: ROS production from flavin binding site of complex I (IF). Format: biochemical.

Another experiment concerns the target T6, GPDH (Rattus norvegicus, UniProt P35571).
T6 construct: from tissue; host or cells: rat skeletal muscle mitochondria (Wistar, Harlan Laboratories)
T6 sequence (P35571 43-727): T3 sequence (P35571 43-727)
Put plainly: Retest of GPDH ROS production (expanded microplate panel / cuvette). The class given is biochemical. The settings on record: microplate or cuvette. The protocol:
Compounds identified as site-selective hits as well as structural analogs were re-sourced from ChemBridge and dissolved in DMSO as 80 mM stocks. Master Titration Plates were prepared manually by serially diluting 80 mM compound stocks between 0.08 and 80 mM on 96-well microplates. Four compounds were titrated in duplicate on each plate. Additional DMSO controls were interspersed across these plates to serve as local normalization controls during analysis since two-way median polishing was not appropriate. Just prior to use, compounds were diluted 100-fold with standard buffer (10X). The same known inhibitor positive controls were included on each plate as during high-throughput screening.
The five core ROS assays and single ΔΨm assay were carried out as in the initial high-throughput screen. In addition, several assays were included to help validate the specificity of the compounds for a given site of production. All compounds were titrated against separate assays targeting IQ ROS and IIIQo ROS using subsaturating (0.5 mM final) succinate. […] Specifically, ΔΨm was monitored separately with 5 mM succinate (in the presence of 4 μM rotenone) in addition to glutamate and malate as before. The use of different substrates was designed to reveal compounds that disrupt mitochondrial function in a substrate specific manner.
Most frequently, these changes involved the use of different substrates to supply electrons from an alternative entry point in the chain. If a site of ROS production is being targeted selectively by a compound, then in many cases the supply of electrons should not influence the effectiveness of this compound at suppressing ROS production. […]
The fluorescence values in each well were scaled in relation to the intra-plate DMSO and known inhibitor controls as in the high-throughput screen except that median values for local interspersed DMSO wells (3-6 wells) were used rather than just the 8 DMSO wells in columns 1 and 12. […]

The subject of another experiment is complex I. Description: Rate of NAD(P)H reduction via complex I versus observed ROS production. The class given is biochemical, rat.
[7] abbreviates: Table 7, percent change in ROS from DMSO controls, read-out: IIIQO.
Where [8] appears, read: percent change in ROS from DMSO controls.
The mark [9] stands for this setting: Table 9, percent change in ROS from DMSO controls, read-out: IIIQo.
[10] abbreviates: Table 7, percent change in ROS from DMSO controls.
[11] abbreviates: Table 8, percent change in ROS from DMSO controls.
The mark [12] stands for this setting: Table 9, percent change in ROS from DMSO controls.
[13] abbreviates: Table 7, percent change in ROS from DMSO controls, read-out: IF.

“Also recorded” adds a separate entry of the source. Read-outs that look alike come from different tables or passages of the source.

T5 sequence (Q5XIH3 21-464 limits assumed, one chain of several): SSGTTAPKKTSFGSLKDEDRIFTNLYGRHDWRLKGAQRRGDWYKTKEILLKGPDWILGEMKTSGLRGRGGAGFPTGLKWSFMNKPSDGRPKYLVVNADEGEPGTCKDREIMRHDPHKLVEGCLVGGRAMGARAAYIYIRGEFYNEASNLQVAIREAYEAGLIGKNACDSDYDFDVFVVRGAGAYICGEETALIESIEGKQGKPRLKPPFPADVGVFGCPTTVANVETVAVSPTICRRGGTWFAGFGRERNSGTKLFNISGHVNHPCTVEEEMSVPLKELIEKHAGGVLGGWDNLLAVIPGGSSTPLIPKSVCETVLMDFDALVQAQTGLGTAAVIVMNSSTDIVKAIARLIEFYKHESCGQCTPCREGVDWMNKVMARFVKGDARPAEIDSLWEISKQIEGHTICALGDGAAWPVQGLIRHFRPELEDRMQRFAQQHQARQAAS
T4 sequence (Q920L2 35-656): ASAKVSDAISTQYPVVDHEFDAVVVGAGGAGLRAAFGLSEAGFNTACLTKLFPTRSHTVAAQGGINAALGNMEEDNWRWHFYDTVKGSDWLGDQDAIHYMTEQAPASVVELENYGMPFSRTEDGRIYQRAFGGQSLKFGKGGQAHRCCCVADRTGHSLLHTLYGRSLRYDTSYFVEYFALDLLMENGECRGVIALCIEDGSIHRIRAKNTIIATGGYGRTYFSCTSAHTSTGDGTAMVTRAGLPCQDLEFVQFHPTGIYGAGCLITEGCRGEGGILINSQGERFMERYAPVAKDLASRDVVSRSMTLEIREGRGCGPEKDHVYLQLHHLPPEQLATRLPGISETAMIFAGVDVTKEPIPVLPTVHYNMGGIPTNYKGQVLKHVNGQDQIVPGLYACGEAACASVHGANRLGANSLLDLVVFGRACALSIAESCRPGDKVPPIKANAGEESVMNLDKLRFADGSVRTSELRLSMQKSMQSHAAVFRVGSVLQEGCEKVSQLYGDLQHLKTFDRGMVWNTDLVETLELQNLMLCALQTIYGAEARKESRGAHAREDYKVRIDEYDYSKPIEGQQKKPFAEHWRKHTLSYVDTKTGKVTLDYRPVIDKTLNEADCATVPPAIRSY
T4 sequence (P21913 31-282): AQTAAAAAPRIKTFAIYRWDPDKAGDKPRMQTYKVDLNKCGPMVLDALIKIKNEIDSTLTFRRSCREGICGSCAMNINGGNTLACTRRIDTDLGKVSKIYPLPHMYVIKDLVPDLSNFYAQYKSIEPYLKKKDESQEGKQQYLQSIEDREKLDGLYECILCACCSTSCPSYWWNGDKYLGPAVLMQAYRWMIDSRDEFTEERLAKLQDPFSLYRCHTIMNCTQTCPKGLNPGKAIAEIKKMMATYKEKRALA
T4 sequence (Q641Z9 30-169 limits assumed): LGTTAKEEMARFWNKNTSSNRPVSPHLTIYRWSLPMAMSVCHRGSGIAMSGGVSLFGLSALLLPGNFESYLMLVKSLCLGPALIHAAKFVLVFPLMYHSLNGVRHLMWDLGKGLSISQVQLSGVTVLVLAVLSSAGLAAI
T4 sequence (Q6PCT8 57-159): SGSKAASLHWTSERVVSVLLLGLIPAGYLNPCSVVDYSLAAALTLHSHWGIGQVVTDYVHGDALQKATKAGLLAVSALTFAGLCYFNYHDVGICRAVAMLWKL
T1 sequence (Q5XIH3 21-464 limits assumed): as the sequence (Q5XIH3 21-464 limits assumed, one chain of several) above

For the compound `O=C(O)C1CCCCC1C(=O)NC1CCCCCCC1` (stereo not drawn) [Compound 30], the inhibition at 2.5 µM on site IF was 37%; in [1] (setting [7]) it was -0.1%; in [1] (setting [9]), -0.1%; in experiment [4], -3.3%; in experiment [6] (Table 3, 5 mM glutamate, 5 mM malate, 4 μM rotenone, compounds 2.5 μM, percent change from DMSO, positive control −100%, read-out: % Reduction in ROS production (IF)) it was 36.9%; in experiment [6] (setting [13]), 36.9%. In experiment [1] (setting [8]), the IIIQO came to 0.1. In addition, in experiment [2] (setting [10]), the inhibition is -0.7%. The GPDH in experiment [2] (setting [11]) and in experiment [2] (setting [12]) was 0.7 in each case. Moreover, the ΔΨm in experiment [3] (Table 8, glutamate) is recorded as −1.0; in [3] (Table 9, glutamate), −1.0. Moreover, the SDH in [4] (Table 8) and in experiment [4] (Table 9) was 3.3 each time. Further, the IQ in experiment [5] (Table 7), in experiment [5] (Table 8) and in [5] (Table 9) was −0.7 in each case. Further, the IF in experiment [6] (setting [11]) and in experiment [6] (setting [12]) was −36.9 each time.
With `O=C(O)CCC(=O)Nc1ccc(-c2nc3ccccc3o2)cc1` [Compound 50], the “effect on GPDH ROS on retesting” value on GPDH was “retested well as selective inhibitors of GPDH ROS”. In addition, the inhibition at 2.5 µM in [1] (setting [7]) was -2.5%; in [1] (setting [9]) it was -2.5%; in experiment [2] (Table 6, 25 mM glycerol phosphate, rotenone, antimycin A, malonate, myxothiazol, compounds 2.5 μM, scaled to IQ positive controls, read-out: % Reduction in ROS Production (GPDH)) it was 12.2%; in experiment [4], -2.1%; in experiment [6] (setting [13]), 2.6%. Further, the IIIQO in experiment [1] (setting [8]) is given as 2.5. Besides, the inhibition in experiment [2] (setting [10]) amounted to 12.2%. The GPDH in experiment [2] (setting [11]) and in [2] (setting [12]) was −12.2 in each case. Also, the ΔΨm was found to be 0.8 in [3] (Table 8, glutamate) and 0.8 in experiment [3] (Table 9, glutamate). Further, the SDH in experiment [4] (Table 8) and in experiment [4] (Table 9) was 2.1 throughout. The IQ in experiment [5] (Table 7), in [5] (Table 8) and in [5] (Table 9) was 0.8 throughout. Further, the IF in experiment [6] (setting [11]) and in [6] (setting [12]) was −2.6 in each case.
`COc1ccc(/C=C2\C(=O)NC(=S)N(c3ccccc3)C2=O)cc1Br` [Compound 52]: the “effect on GPDH ROS on retesting” value on GPDH was “did not show any effect on GPDH when retested”. Besides, the inhibition at 2.5 µM in experiment [1] (read-out: IIIQO) is 0.4%; in [2] (Table 7, percent change in ROS from DMSO controls, read-out: GPDH) it was 0%; in experiment [2] (read-out: % Reduction in ROS Production (GPDH)) it was 14.6%; in [4], -4.6%; in experiment [6] (setting [13]) it was 2.2%. Further, in experiment [5] (Table 7), the IQ is −0.2.
`N#CC(C#N)=NNc1ccc(OC(F)(F)F)cc1` [FCCP]: the “effect on rates of NADH reduction and ROS production” value in the experiment on complex I is given as “progressively inhibited both activities; also recorded: suppresses observed ROS to near zero”.
In the case of `C=C(C)[C@H]1Cc2c(ccc3c2O[C@@H]2COc4cc(OC)c(OC)cc4[C@@H]2C3=O)O1` [rotenone], the “effect on rates of NADH reduction and ROS production” value was “progressively inhibited both activities” in the experiment with complex I (succinate with low glutamate, range of concentrations); “eliminates all IQ ROS production but not that from underlying IF and IIIQo” in the experiment with complex I (succinate with low glutamate, range of concentrations, listed as Rotenone).
